Measured values as given in US9624239B2, “Protein kinase inhibitors” (Pharmascience Inc., priority 2011, dated 2017).
One block for each molecule: values may come before it.

Tests used:
[1] = target: T1, histidine tagged recombinant human full-length Bruton Agammaglobulinemia Tyrosine Kinase (Btk) (Homo sapiens, UniProt Q06187); assay: Btk kinase inhibition assay (fluorescence polarization, KinEASE FP Fluorescein Green); assay type: biochemical; conditions: 10 μM ATP, 250 μM substrate, 60 minutes, room temperature; Ki from IC50 by Cheng-Prusoff; read-out: ki50 (nM), Inhibition of Btk
T1 construct: recombinant human full-length Bruton Agammaglobulinemia Tyrosine Kinase (Btk); histidine tag
T1 sequence (Q06187 whole entry): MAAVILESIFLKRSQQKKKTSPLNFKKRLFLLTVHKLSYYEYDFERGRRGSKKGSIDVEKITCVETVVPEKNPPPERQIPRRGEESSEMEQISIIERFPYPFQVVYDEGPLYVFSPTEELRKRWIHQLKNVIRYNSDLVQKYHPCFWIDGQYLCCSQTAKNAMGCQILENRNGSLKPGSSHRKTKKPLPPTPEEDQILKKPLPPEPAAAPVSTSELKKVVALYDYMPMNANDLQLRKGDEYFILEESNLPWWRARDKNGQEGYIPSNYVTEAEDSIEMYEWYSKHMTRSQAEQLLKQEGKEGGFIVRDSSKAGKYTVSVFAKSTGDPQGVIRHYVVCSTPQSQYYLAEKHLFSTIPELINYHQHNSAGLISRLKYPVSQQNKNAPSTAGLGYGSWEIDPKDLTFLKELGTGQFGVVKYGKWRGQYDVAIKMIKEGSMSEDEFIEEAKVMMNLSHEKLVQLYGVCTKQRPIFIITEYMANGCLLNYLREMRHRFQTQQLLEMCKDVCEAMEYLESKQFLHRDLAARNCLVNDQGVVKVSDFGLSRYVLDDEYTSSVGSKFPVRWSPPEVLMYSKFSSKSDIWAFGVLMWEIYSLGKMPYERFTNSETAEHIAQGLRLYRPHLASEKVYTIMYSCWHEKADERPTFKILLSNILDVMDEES
Description: Kinase Binding Btk and Lck Kinase Inhibition Assay
Fluorescence polarization-based kinase assays were performed in 384 well-plate format using histidine tagged recombinant human full-length Bruton Agammaglobulinemia Tyrosine Kinase (Btk) or histidine tagged recombinant Human Lymphocyte-Specific Protein Tyrosine Kinase (Lck) and a modified protocol of the KinEASE™ FP Fluorescein Green Assay supplied from Millipore. Kinase reaction were performed at room temperature for 60 minutes in presence of 250 μM substrate, 10 μM ATP and variable test article concentrations. The reaction was stopped with EDTA/kinease detection reagents and the polarization measured on a Tecan 500 instrument. From the dose-response curve obtained, the IC50 was calculated using Graph Pad Prisms® using a non-linear fit curve. The Km for ATP on each enzyme was experimentally determined and the Ki values calculated using the Cheng-Prusoff equation (see: Cheng Y, Prusoff W H. (1973) Relationship between the inhibition constant (K1) and the concentration of inhibitor which causes 50 percent inhibition (I50) of an enzymatic reaction”. Biochem Pharmacol 22 (23): 3099-108).
ki values are reported in Tables 2 and 3: • a—Less than 100 nM; b—less than 1000 nM; c—more than 1000 nM

mouse splenocytes = assay: Splenic cell proliferation assay (anti-IgM stimulated B cell proliferation, Cell Titer-Glo); assay type: cell-based; conditions: Splenocyte; CD1 mouse splenocytes, 1 h pre-treatment, 2.5 ug/ml anti-IgM F(ab')2 for 72 h; read-out: EC50 (nM), Inhibition of splenic cell proliferation
Description: Splenic Cell Proliferation Assay
Splenocytes were obtained from 6 week old male CD1 mice (Charles River Laboratories Inc.). Mouse spleens were manually disrupted in PBS and filtered using a 70 μm cell strainer followed by ammonium chloride red blood cell lysis. Cells were washed, resuspended in Splenocyte Medium (HyClone RPMI supplemented with 10% heat-inactivated FBS, 0.5× non-essential amino acids, 10 mM HEPES, 50 uM beta mercaptoethanol) and incubated at 37° C., 5% CO2 for 2 h to remove adherent cells. Suspension cells were seeded in 96 well plates at 50,000 cells per well and incubated at 37° C., 5% CO2 for 1 h. Splenocytes were pre-treated in triplicate with 10,000 nM curves of Formula 1 compounds for 1 h, followed by stimulation of B cell proliferation with 2.5 ug/ml anti-IgM F(ab′)2 (Jackson ImmunoResearch) for 72 h. Cell proliferation was measured by Cell Titer-Glo Luminescent Assay (Promega). EC50 values (50% proliferation in the presence of compound as compared to vehicle treated controls) were calculated from dose response compound curves using GraphPad Prism Software.
EC50 values are reported in Table 4: • a—Less than 100 nM; b—less than 1000 nM; c—more than 1000 nM

SMILES: Nc1ncnc2c3c(n(-c4ccc(Oc5ccccc5)cc4)c12)CN(C(=O)OCc1ccccc1)C3 [Compound 5]
- Ki [1]: > 1000 nM

SMILES: Nc1ncnc2c3c(n(-c4ccc(Oc5ccccc5)cc4)c12)CCN(C(=O)OCc1ccccc1)C3 [Compound 6]
- Ki [1]: > 1000 nM

SMILES: Nc1ncnc2c3c(n(-c4ccc(Oc5ccccc5)cc4)c12)CN(Cc1ccccc1)C3 [Compound 10]
- Ki [1]: > 1000 nM

SMILES: Nc1ncnc2c3c(n(-c4ccc(Oc5ccccc5)cc4)c12)CCN(Cc1ccccc1)C3 [Compound 11]
- Ki [1]: > 1000 nM

SMILES: Nc1ncnc2c3c(n(-c4ccc(Oc5ccccc5)cc4)c12)CCN(S(=O)(=O)c1ccccc1)C3 [Compound 12]
- Ki [1]: > 1000 nM

SMILES: Nc1ncnc2c3c(n(-c4ccc(Oc5ccccc5)cc4)c12)CCN(C(=O)c1ccccc1)C3 [Compound 16]
- Ki [1]: > 1000 nM

SMILES: NCC(=O)N1CCc2c(c3ncnc(N)c3n2-c2ccc(Oc3ccccc3)cc2)C1 [Compound 17]
- Ki [1]: > 1000 nM

SMILES: NCC(=O)N1Cc2c(n(-c3ccc(Oc4ccccc4)cc3)c3c(N)ncnc23)C1 [Compound 19]
- Ki [1]: > 1000 nM

SMILES: CC1OCc2c1c1ncnc(N)c1n2-c1ccc(Oc2cccc(N)c2)cc1 (centres unmarked) [Compound 47]
- Ki [1]: < 1000 nM

SMILES: CC1OCc2c1c1ncnc(N)c1n2-c1ccc(Oc2cccc(OCCN(C)C)c2)cc1 (centres unmarked) [Compound 48]
- Ki [1]: > 1000 nM

SMILES: CC1OCc2c1c1ncnc(N)c1n2-c1ccc(Oc2cccc(OCCN3CCOCC3)c2)cc1 (centres unmarked) [Compound 51]
- Ki [1]: > 1000 nM

SMILES: CC1OCc2c1c1ncnc(N)c1n2-c1ccc(Oc2cccc(OCCN3CCCC3)c2)cc1 (centres unmarked) [Compound 52]
- Ki [1]: > 1000 nM

SMILES: CC(=O)Nc1cccc(Oc2ccc(-n3c4c(c5ncnc(N)c53)C(C)OC4)cc2)c1 (centres unmarked) [Compound 55]
- Ki [1]: < 1000 nM

SMILES: Nc1ncnc2c3c(n(-c4ccc(Oc5cccc(OCc6cccnc6)c5)cc4)c12)CCC3 [Compound 62]
- Ki [1]: < 100 nM
- EC50 (mouse splenocytes): 100 to 1000 nM

SMILES: Nc1ncnc2c3c(n(-c4ccc(Oc5ccccc5)cc4)c12)CSC3 [Compound 63]
- Ki [1]: > 1000 nM
- EC50 (mouse splenocytes): > 1000 nM

SMILES: CC1OCc2c1c1ncnc(N)c1n2-c1ccc(Oc2cccc(OCc3ccc(C#N)cc3)c2)cc1 (centres unmarked) [Compound 64]
- Ki [1]: < 1000 nM
- EC50 (mouse splenocytes): > 1000 nM

SMILES: Nc1ncnc2c3c(n(-c4ccc(Oc5ccccc5)cc4)c12)CS(=O)(=O)C3 [Compound 65]
- Ki [1]: > 1000 nM
- EC50 (mouse splenocytes): > 1000 nM

SMILES: CCNc1cccc(Oc2ccc(-n3c4c(c5ncnc(N)c53)C(C)OC4)cc2)c1 (centres unmarked) [Compound 66]
- Ki [1]: < 1000 nM
- EC50 (mouse splenocytes): 100 to 1000 nM

SMILES: CC1OCc2c1c1ncnc(N)c1n2-c1ccc(Oc2cccc(OCC3CCOCC3)c2)cc1 (centres unmarked) [Compound 67]
- Ki [1]: < 100 nM
- EC50 (mouse splenocytes): > 1000 nM

SMILES: Nc1ncnc2c3c(n(-c4ccc(Oc5cccc(OCc6ccccc6)c5)cc4)c12)CCC3 [Compound 68]
- Ki [1]: < 100 nM
- EC50 (mouse splenocytes): 100 to 1000 nM

SMILES: CC1OCc2c1c1ncnc(N)c1n2-c1ccc(Oc2cccc(NCc3ccccc3)c2)cc1 (centres unmarked) [Compound 69]
- Ki [1]: < 100 nM
- EC50 (mouse splenocytes): > 1000 nM

Now from value to molecule, other results behind:

- Ki [1]: < 1000 nM
SMILES: CC1OCc2c1c1ncnc(N)c1n2-c1ccc(Oc2cccc(N(C)C)c2)cc1 (centres unmarked) [Compound 70]
- EC50 (mouse splenocytes): 100 to 1000 nM

- Ki [1]: > 1000 nM
SMILES: CC1OCc2c1c1ncnc(N)c1n2-c1ccc(Oc2ccc(C#N)cc2)cc1 (centres unmarked) [Compound 71]
- EC50 (mouse splenocytes): > 1000 nM

- Ki [1]: > 1000 nM
SMILES: CC1OCc2c1c1ncnc(N)c1n2-c1ccc(Oc2cccnc2)cc1 (centres unmarked) [Compound 72]
- EC50 (mouse splenocytes): > 1000 nM

- Ki [1]: > 1000 nM
SMILES: CC1OCc2c1c1ncnc(N)c1n2-c1ccc(Oc2cccc(OCCCN(C)C)c2)cc1 (centres unmarked) [Compound 73]
- EC50 (mouse splenocytes): > 1000 nM

- Ki [1]: > 1000 nM
SMILES: CC1OCc2c1c1ncnc(N)c1n2-c1ccc(Oc2ccncc2)cc1 (centres unmarked) [Compound 74]
- EC50 (mouse splenocytes): > 1000 nM

- Ki [1]: < 100 nM
SMILES: CC1OCc2c1c1ncnc(N)c1n2-c1ccc(Oc2cccc(OCc3ccccn3)c2)cc1 (centres unmarked) [Compound 75]
- EC50 (mouse splenocytes): > 1000 nM

- Ki [1]: < 1000 nM
SMILES: CC1OCc2c1c1ncnc(N)c1n2-c1ccc(Oc2cccc(NS(C)(=O)=O)c2)cc1 (centres unmarked) [Compound 76]
- EC50 (mouse splenocytes): > 1000 nM

- Ki [1]: < 100 nM
SMILES: CC1OCc2c1c1ncnc(N)c1n2-c1ccc(Oc2cccc(OCCc3ccccc3)c2)cc1 (centres unmarked) [Compound 77]
- EC50 (mouse splenocytes): 100 to 1000 nM

- Ki [1]: < 1000 nM
SMILES: CC1OCc2c1c1ncnc(N)c1n2-c1ccc(Oc2cccc(O[C@H](C)c3ccccc3)c2)cc1 (some centres unmarked) [Compound 78]
- EC50 (mouse splenocytes): > 1000 nM

- Ki [1]: < 1000 nM
SMILES: Cc1ccc(Oc2ccc(-n3c4c(c5ncnc(N)c53)C(C)OC4)cc2)cc1 (centres unmarked) [Compound 79]
- EC50 (mouse splenocytes): > 1000 nM

- Ki [1]: < 1000 nM
SMILES: CC1OCc2c1c1ncnc(N)c1n2-c1ccc(Oc2cccc(NS(=O)(=O)c3ccccc3)c2)cc1 (centres unmarked) [Compound 80]
- EC50 (mouse splenocytes): > 1000 nM

- Ki [1]: < 100 nM
SMILES: CC1OCc2c1c1ncnc(N)c1n2-c1ccc(Oc2cccc(NS(=O)(=O)Cc3ccccc3)c2)cc1 (centres unmarked) [Compound 81]
- EC50 (mouse splenocytes): > 1000 nM

- Ki [1]: < 100 nM
SMILES: CC1OCc2c1c1ncnc(N)c1n2-c1ccc(Oc2cccc(NC(=O)c3ccccc3)c2)cc1 (centres unmarked) [Compound 82]
- EC50 (mouse splenocytes): > 1000 nM

- Ki [1]: > 1000 nM
SMILES: CC1OCc2c1c1ncnc(N)c1n2-c1ccc(Oc2cccc(OCC(N)=O)c2)cc1 (centres unmarked) [Compound 83]
- EC50 (mouse splenocytes): > 1000 nM

- Ki [1]: < 100 nM
SMILES: CC1OCc2c1c1ncnc(N)c1n2-c1ccc(Oc2cccc(NC(=O)Cc3ccccc3)c2)cc1 (centres unmarked) [Compound 84]
- EC50 (mouse splenocytes): > 1000 nM

- Ki [1]: < 100 nM
SMILES: CC1OCc2c1c1ncnc(N)c1n2-c1ccc(Oc2cccc(COc3ccccc3)c2)cc1 (centres unmarked) [Compound 85]
- EC50 (mouse splenocytes): 100 to 1000 nM

- Ki [1]: < 100 nM
SMILES: CC1OCc2c1c1ncnc(N)c1n2-c1ccc(Oc2cccc(O[C@@H](C)c3ccccc3)c2)cc1 (some centres unmarked) [Compound 86]
- EC50 (mouse splenocytes): > 1000 nM

- Ki [1]: < 100 nM
SMILES: Cc1nc(COc2cccc(Oc3ccc(-n4c5c(c6ncnc(N)c64)C(C)OC5)cc3)c2)no1 (centres unmarked) [Compound 87]
- EC50 (mouse splenocytes): > 1000 nM

- Ki [1]: > 1000 nM
SMILES: CC1OCc2c1c1ncnc(N)c1n2-c1ccc(Oc2ccccc2)nc1 (centres unmarked) [Compound 88]

- Ki [1]: < 100 nM
SMILES: CC1OCc2c1c1ncnc(N)c1n2-c1ccc(Oc2cccc(OCc3cccc(C#N)c3)c2)cc1 (centres unmarked) [Compound 89]
- EC50 (mouse splenocytes): 100 to 1000 nM

- Ki [1]: < 100 nM
SMILES: Cc1nc(-c2cccc(Oc3ccc(-n4c5c(c6ncnc(N)c64)C(C)OC5)cc3)c2)cs1 (centres unmarked) [Compound 90]
- EC50 (mouse splenocytes): 100 to 1000 nM

- Ki [1]: < 1000 nM
SMILES: CC1OCc2c1c1ncnc(N)c1n2-c1ccc(Oc2cccc(N3CCOCC3)c2)cc1 (centres unmarked) [Compound 91]

- Ki [1]: < 100 nM
SMILES: CC1OCc2c1c1ncnc(N)c1n2-c1ccc(Oc2cccc(OCc3cccc(C(N)=O)c3)c2)cc1 (centres unmarked) [Compound 92]
- EC50 (mouse splenocytes): 100 to 1000 nM

- Ki [1]: < 100 nM
SMILES: CC1OCc2c1c1ncnc(N)c1n2-c1ccc(Oc2cccc(OCc3cncn3C)c2)cc1 (centres unmarked) [Compound 93]

- Ki [1]: < 100 nM
SMILES: CC1OCc2c1c1ncnc(N)c1n2-c1ccc(Oc2cccc(OCc3ccccc3F)c2)cc1 (centres unmarked) [Compound 94]
- EC50 (mouse splenocytes): 100 to 1000 nM

- Ki [1]: < 100 nM
SMILES: CC1OCc2c1c1ncnc(N)c1n2-c1ccc(Oc2cccc(OCc3ccc(Cl)cc3)c2)cc1 (centres unmarked) [Compound 95]
- EC50 (mouse splenocytes): 100 to 1000 nM

- Ki [1]: < 100 nM
SMILES: CC1OCc2c1c1ncnc(N)c1n2-c1ccc(Oc2cccc(OCc3ccccc3C#N)c2)cc1 (centres unmarked) [Compound 96]
- EC50 (mouse splenocytes): < 100 nM

- Ki [1]: < 100 nM
SMILES: CC1OCc2c1c1ncnc(N)c1n2-c1ccc(Oc2cccc(OCc3ccc(C(N)=O)cc3)c2)cc1 (centres unmarked) [Compound 98]

- Ki [1]: < 1000 nM
SMILES: CC1OCc2c1c1ncnc(N)c1n2-c1ccc(Oc2cccc(OCc3ccccc3C(N)=O)c2)cc1 (centres unmarked) [Compound 101]

- Ki [1]: < 1000 nM
SMILES: CC(=O)Nc1ccc(COc2cccc(Oc3ccc(-n4c5c(c6ncnc(N)c64)C(C)OC5)cc3)c2)cc1 (centres unmarked) [Compound 109]
